The text below walks through data of patent US6391296B1 (priority 1997, dated 2002).

The subject of assay [1] is recombinant Bombyx mori nuclear polyhedrosis viruses rBNVγ. The class given is cell-based, Bombyx mori nuclear polyhedrosis virus. The note with it: pH 3.5.
The next assay has as its system Escherichia coli TI41. The class given is cell-based. The note with it: Addition of 20 mg/l of thiaisoleucine, 30° C., 48 hours; no addition = 100.
The next assay deals with Escherichia coli TI139. Format: cell-based. The note with it: Addition of 20 mg/l of thiaisoleucine, 30° C., 48 hours; no addition = 100.
A further assay has as its system Escherichia coli JM101. Format: cell-based. The note with it: Addition of 20 mg/l of thiaisoleucine, 30° C., 48 hours; no addition = 100.

Consider `CC(C)(C)CC(C)(C)c1ccc(OCCOCC[N+](C)(C)Cc2ccccc2)cc1` [benzethonium chloride], for which, in assay [1], the “Amount of infectious viruses” value is “Not detected”.
Regarding thiaisoleucine, the “Relative degree of growth” value was found to be 95.2% in the assay on Escherichia coli TI41, 106.1% with Escherichia coli TI139 and 17.1% in the assay on Escherichia coli JM101.
